Measurements published in a melting point compilation (Tetko et al.; mined from patent text by program, amines drawn as free bases though some values may be those of a salt).

Row | SMILES | melting point
1 | COc1ccc2c(c1)C(=O)[C@@H](O)[C@](C#Cc1ccccc1)(c1ccccc1)O2 (relative stereo) | 135 to 138 °C
2 | CCOC(=O)C(=O)Nc1ccc2c(=O)n3c(nc2c1)C(=Cc1ccc(OC)cc1OC)CC3 | 285 to 288 °C
3 | N#Cc1c(-c2ccccc2)cc(-c2ccccc2)nc1N | 170 to 174 °C
4 | Nc1ccc(N2CCN(c3ccccn3)CC2)cc1 | 119 to 120 °C
5 | CC(C)(C)c1cc(CCc2ccccc2NC(=O)N2CCC(N3CCCCC3)CC2)cc(C(C)(C)C)c1O | 64 to 67 °C
6 | CN1C(=O)c2cccc(SCc3ccccc3)c2C1=O | 180 to 187 °C
7 | O=[N+]([O-])c1ccc(N2Cc3ccccc3P2(=O)c2ccccc2)cc1 (stereo not given) | 255 to 257 °C
8 | N#CNC(=N)NCCc1c[nH]cn1 | 152 to 154 °C
9 | C/C(=N\OC(=O)c1ccc(CNC(=O)OC(C)(C)C)cc1)[C@H]1CC[C@H]2[C@@H]3CCC4=CC(=O)CC[C@]4(C)[C@H]3CC[C@]12C | 166 to 168 °C
10 | CCC1(CC)O[C@@H](Oc2ccc3c(O)c(NC(=O)C(C)C)c(=O)oc3c2C)[C@H](O)[C@H](OC(=O)C2(C)C=CCN2)[C@H]1OC (stereo not given in full) | 140 to 142 °C
11 | CCOC(=O)c1c(NC(=O)C(F)(F)F)c2cccnc2n(CC)c1=O | 195 to 197 °C
12 | COC(=O)C1CC(=O)N(c2ccc(C)cc2)C1 (stereo not given) | 71 to 74 °C
13 | COC(=O)c1cc2cc(C)ccc2s1 | 78 to 79 °C
14 | N#Cc1ccc2c(c1)Cc1cc(C#N)ccc1-2 | 282 to 284 °C
15 | CC(=O)[C@H]1C[C@@H](C(N)=S)N(C(=O)OCc2ccc([N+](=O)[O-])cc2)C1 | 168 to 170 °C
16 | CCCOc1nc(=O)n(C(=O)NC)s1 | 112 °C
17 | COc1cc2cc3c(Cl)ncnc3cc2cc1OCCN1CCOCC1 | 166 to 168 °C
18 | CCCCCCCCCCCCOc1ccc(C#N)cc1-c1cc(C#N)ccc1OCCCCCCCCCCCC | 168 to 170 °C
19 | OC(CNCCc1ccsc1)c1ccccc1 (stereo not given) | 75 °C
20 | O=C(c1ccc(N2CCOCC2)cc1O)C(F)(F)F | 81 to 82 °C
21 | COc1cc(CN2CCN(c3ccc(C(=O)NC4CC4)cc3Cl)CC2)cc2c1OC(C)C(=O)N2 (stereo not given) | 226 °C
22 | CCOc1cc2c(cc1OCC)C(=C(C#N)SCC(CN1CCOCC1)OC(C)=O)NCC2 (stereo not given) | 133 °C
23 | Cn1c(C(F)(F)F)cc(=O)n(-c2cc([N+](=O)[O-])c(C#N)cc2F)c1=O | 155 to 157 °C
24 | Oc1nsnc1-c1ccc(Cl)cc1 | 240 to 242 °C
25 | COC(=O)c1ccc(C=CC(=O)Nc2cnc3c(C)cc(C)cc3c2-c2ccccc2Cl)cc1 | 225 to 226 °C

Row | SMILES | melting point
26 | COc1ccc2c(c1)OCC(c1ccccc1)C2c1ccc(OCCN2CCCC2)cc1 (stereo not given) | 113 to 114 °C
27 | Oc1cccc(-c2ccccc2-c2nc(-c3ccccc3)c(-c3ccccc3)o2)c1 | 125 to 128 °C
28 | CNc1c(F)cc2c(=O)c(C(=O)O)cn(-c3nc(N)c(F)cc3F)c2c1Br | 205 to 208 °C
29 | NC(=S)c1ccc([N+](=O)[O-])cc1 | 165 to 167 °C
30 | CCOC(=O)CNC(=O)Nc1ccc(C#N)cc1 | 140 to 144 °C
31 | CCCCCc1c(C(C)C)nc(C(C)C)c(CO)c1-c1ccccc1O | 126 °C
32 | CC(C)(C)[Si](C)(C)Oc1ccccc1-c1cc(-c2ccc([N+](=O)[O-])cc2)c(C#N)c(NC(=O)c2cccs2)n1 | 168 to 169 °C
33 | CC(C)(C)c1cc(SCN2C(=O)c3ccccc3C2=O)cc(C(C)(C)C)c1O | 151 to 153 °C
34 | CCCOC(=O)c1ccc(OCCCCCCCc2cc(C)no2)cc1 | 54 °C
35 | CCCc1nc2cc(CC(=O)O)ccc2o1 | 67 to 68 °C
36 | N#Cc1ccc(Oc2ccc(C#N)cc2C#N)cc1 | 222 to 223 °C
37 | CC1(C)Cc2sccc2C=[N+]1[O-] | 130 to 131 °C
38 | CCOc1cc(N(CC)CC)ccc1C1(N(c2ccc(N(C)C)cc2)c2ccc(N(C)C)cc2)OC(=O)c2ccccc21 (stereo not given) | 58 to 69 °C
39 | COC(=O)CCC(C)C1CCC2C3C(C(C)=O)CC4CC(C(C)=O)CCC4(C)C3C=CC12C (stereo not given) | 137 to 139 °C
40 | Cc1oc2ccccc2c1C(=O)O | 171 to 176 °C
41 | CN1CCC(c2cnn3c(-c4cccc(NC(=O)c5cccc(C(F)(F)F)c5)c4)ccnc23)CC1 | 183 to 185 °C
42 | O=S1NC(Cc2coc3ccc(Cl)cc23)=NO1 (stereo not given) | 140 °C
43 | CCC(CC)c1ccc(Cl)c2nc3n(c12)CCCCN3c1ccc(OC)nc1OC | 85 to 88 °C
44 | CN1Cc2ccc3c(c2C1)NC(=O)C3=NO | 242 to 244 °C
45 | OCCN1C2CCC1CC(c1ccc3ccccc3c1)C2 (stereo not given) | 84 to 88 °C
46 | Nc1ncc(CCc2ccccc2)cc1[N+](=O)[O-] | 145 to 146 °C
47 | CCCn1c(=O)c2[nH]c(C34CC5CC(CC(O)(C5)C3)C4)nc2n(CCC)c1=O | 213 to 214 °C
48 | CC1(C)NC(C(=O)O)C(C)(C)S1 (stereo not given) | 206 to 208 °C
49 | Cc1cc(C)c2c(n1)N(CCCCl)c1ccccc1N(C)C2=O | 161 to 163 °C
50 | CC(=O)c1ccc(-c2ccc(Cl)cc2)cc1 | 100 to 101 °C

Row | SMILES | melting point
51 | CC(C)c1ccc2[nH]c(C(=O)c3ccc(Cl)cc3)c(CC(=O)O)c2c1 | 197 to 200 °C
52 | CN1CCN(c2c(F)cc3c(=O)c(C(=O)O)cn(C4CSC4)c3c2F)CC1 | 204 to 206 °C
53 | NC(=O)NN=C1CCCCC1n1nc(-c2c(-c3ccccc3)nn3ccccc23)ccc1=O (stereo not given) | 227 to 229 °C
54 | O=C(O)c1cccc(-c2ccccc2F)c1 | 147 to 148 °C
55 | CS(=O)(=O)c1ccc(-n2nc(C(F)(F)F)cc2-c2ccc(-c3ccco3)cc2)cc1F | 129 to 130 °C
56 | CCn1ncc(NCC(O)CO)c(Cl)c1=O (stereo not given) | 120 to 124 °C
57 | CCCCCCC(C(=O)O)n1cnc([N+](=O)[O-])c1 (stereo not given) | 112 to 114 °C
58 | CCOC(=O)c1c(Cn2ccccc2=O)nc2cc(OC)c(OC)cc2c1-c1ccc(OC)c(OC)c1 | 154 to 156 °C
59 | CCOC(=O)CC(=O)NNC(=O)c1cc2cccc(N(C)S(=O)(=O)c3cccs3)c2[nH]1 | 119 to 121 °C
60 | OCc1ccc(I)c(Cl)c1 | 80 to 82 °C
61 | COC1=C(OC)C(=O)C2=C(CC(CCCCOc3ccc(CO)cc3)C2)C1=O | 72 to 75 °C
62 | CCN1C(=O)CC(C(=O)O)C1c1c(Cl)cccc1Cl (stereo not given) | 195 to 197 °C
63 | O=c1oc(-c2cc(C(F)(F)F)cc(C(F)(F)F)c2)cc(O)c1Cc1ccccc1 | 80 to 82 °C
64 | CNCc1nc(C(=O)NC)c2n1-c1ccc(Cl)cc1C(c1ccccc1Cl)=NC2 | 270 to 273 °C
65 | Cc1cc(C)cc(-c2cnn3c(-c4cccc(-c5nnn(CCN6CCCCC6)n5)c4)ccnc23)c1 | 66 °C
66 | COc1ccc2[nH]c(-c3cccc(F)c3)cc(=O)c2c1OP(=O)(O)O | 179 to 181 °C
67 | COc1ccc(CCCC(C)=O)cc1S(N)(=O)=O | 115 to 116 °C
68 | CCCCOCCOc1ccc(-c2ccc3c(c2)C=C(C(=O)Nc2ccc([C@H](O)c4ccccn4)cc2)CCN3C(=O)C(F)(F)F)cc1 | 100 to 102 °C
69 | Oc1c2ncnc(S)c2nn1-c1ccccc1 | > 300 °C
70 | O=C1N(Cc2ncon2)c2ccccc2C12COc1cc3c(cc12)OCO3 (stereo not given) | 160 to 162 °C
71 | CCOC(=O)c1ccc(C=Cc2cc3ccccc3s2)s1 | 116 to 117 °C
72 | N#Cc1cc(C(=O)O)n(/C=C/c2ccccc2)c1 | 166 to 168 °C
73 | COc1cc(CCCC2OC(=O)NC2=O)ccc1OCc1csc(/C=C/c2ccccc2)n1 (stereo not given) | 202 to 203 °C
74 | CCC(C)n1nc(C)n(-c2ccc(N3CCCN(C(=O)OC(C)(C)C)CC3)cc2)c1=O (stereo not given) | 119 to 120 °C
75 | O=C(Nc1nc(=O)n(S(=O)(=O)c2ccccc2)cc1F)Oc1ccccc1 | 182 to 185 °C

Row | SMILES | melting point
76 | CC(C)(C#N)c1cc(CCl)cc(C(C)(C)C#N)c1 | 119 to 121 °C
77 | CCOC(=O)c1cnc2c(NC(=O)c3c(Cl)cccc3Cl)cccc2c1CC(=O)O | 149 to 159 °C
78 | N#CCC1(O)CCc2ccccc2C12CCCC2 (stereo not given) | 165 to 166 °C
79 | CN1C(=O)CC[C@]2(C)c3ccc(-c4ccc(C(C)(C)C)cc4)cc3CC[C@@H]12 | 141 to 147 °C
80 | FC(F)(F)Sc1ccc2c(c1)C(=C1CCN(CC3CC3)CC1)c1ccccc1C=C2 | 143 to 144 °C
81 | Nc1nc(OC(F)F)cc(OC(F)F)n1 | 67 to 69 °C
82 | O=C1COC2(CCN(CC(=O)c3ccc(F)cc3)CC2)CN1 | 206 to 210 °C
83 | CCOC(=O)C1=C(C(Br)Br)Nc2ncnn2C1C (stereo not given) | 170 to 171 °C
84 | Cc1ccc(-c2ncc3c(n2)CCCCC3)nc1-c1ccccc1 | 151 to 154 °C
85 | CC(CCC(=O)O)C1CCC2C3C(=O)CC4CC(OC5CCCCO5)CCC4(C)C3CCC12C (stereo not given) | 157 to 159 °C
86 | Fc1cc(F)c2[nH]c3c(c2c1)CC(N1CCCCC1)CC3 (stereo not given) | > 290 °C
87 | CC(=O)c1ccccc1NC(C(N)=O)c1c(Cl)cccc1Cl (stereo not given) | 169 °C
88 | O=c1oc2ccccc2cc1CCN1CCC(Nc2nc3ccccc3n2Cc2cccs2)CC1 | 165 °C
89 | Cc1nn(-c2c(Cl)cc(C(F)(F)F)cc2Cl)c(N)c1C#N | 194 to 196 °C
90 | CS(=O)(=O)OC1=C(C(=O)O)N2C(=O)[C@@H](NC(=O)Cc3ccccc3)[C@H]2CN1 (racemic) | 115 to 117 °C
91 | Cc1nc(N)c2ncn(N(C)C)c2c1C | 205 to 207 °C
92 | CCCCCCCCCCCCCCc1ccc(CCCCCC)c(O)c1 | 43 to 45 °C
93 | Cc1cc(C)c2cccc(OCc3c(Cl)ccc(S(=O)(=O)N4CC(O)CC4C(=O)O)c3Cl)c2n1 (stereo not given) | > 260 °C
94 | CCOC(=O)CC(=O)c1ccc(Br)cc1Cl | 34 °C
95 | CCOC(=O)c1ccc(N2CCN(C(=O)c3ccc(Cl)cc3)CC2)cc1 | 147 to 150 °C
96 | CCOC(=O)c1cnc2n(c1=O)C(C)CC=C2NC (stereo not given) | 141 to 142 °C
97 | CN(C)C=Nc1[nH]nc(NCc2ccccc2)c1C#N | 197 to 200 °C
98 | CC(=O)OCC(=O)Nc1ccc(-c2nc(C(=O)Nc3nccs3)c(-c3ccc(C)cc3)[nH]2)cc1 | > 250 °C
99 | CCN1C(=O)CC(C)(C)c2ccc(C#N)cc21 | 120 to 121 °C
100 | CC(NC(=O)N(C)O)c1ccc(OCc2ccccc2)cc1 (stereo not given) | 105 to 106 °C
